Results as given in US20100168102A9, “Amide Derivatives as Kinase Inhibitors” (Devgen NV, priority 2005, published 2010).
Where two headings read alike, the source gives them in different places.

Biological target: T1, PKC epsilon (Homo sapiens, UniProt Q02156)
T1 construct: purchased Invitrogen P2282
T1 sequence (Q02156 1-737): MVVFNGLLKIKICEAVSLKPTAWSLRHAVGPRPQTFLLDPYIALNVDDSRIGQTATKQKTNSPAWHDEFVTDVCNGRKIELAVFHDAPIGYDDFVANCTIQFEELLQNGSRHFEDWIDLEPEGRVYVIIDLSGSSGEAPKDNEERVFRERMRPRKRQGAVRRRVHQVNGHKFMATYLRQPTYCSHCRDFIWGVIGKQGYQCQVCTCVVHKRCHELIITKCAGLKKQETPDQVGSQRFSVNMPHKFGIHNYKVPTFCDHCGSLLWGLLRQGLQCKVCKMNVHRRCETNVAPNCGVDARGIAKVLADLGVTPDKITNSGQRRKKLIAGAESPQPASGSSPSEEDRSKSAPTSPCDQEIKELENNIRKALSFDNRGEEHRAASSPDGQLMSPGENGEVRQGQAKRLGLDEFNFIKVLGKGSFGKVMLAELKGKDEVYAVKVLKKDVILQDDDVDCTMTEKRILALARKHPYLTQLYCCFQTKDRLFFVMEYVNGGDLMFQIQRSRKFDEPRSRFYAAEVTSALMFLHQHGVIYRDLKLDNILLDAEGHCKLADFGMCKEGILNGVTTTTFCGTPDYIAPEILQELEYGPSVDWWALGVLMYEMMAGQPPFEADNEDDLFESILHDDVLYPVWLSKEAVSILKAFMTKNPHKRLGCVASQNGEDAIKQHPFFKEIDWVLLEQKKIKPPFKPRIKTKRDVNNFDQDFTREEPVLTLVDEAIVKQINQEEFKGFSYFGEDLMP
Experiment: Biochemical assay for PKC epsilon (fluorescence polarization, Protein Kinase C Assay Kit, Red)
Conditions: read-out: IC50 μM PKCε
Procedure: The compounds were tested for inhibition of PKC epsilon.
The inhibition assays were performed with a fluorescence polarization (FP) assay using the commercially available Protein Kinase C Assay Kit, Red, from Invitrogen (Product ID. No. P2941), essentially in accordance with the protocol supplied by the manufacturer. […] The isozyme PKC epsilon was also obtained from Invitrogen (Product ID No. P2282).
Staurosporine was used as a positive control (2 μM).
To perform the assay, 2 μl of a solution of the compound to be tested in DMSO (at each concentration) was added to 6 μl of a solution of the enzyme in 10 mM HEPES, 5 mM dithiotreitol, 0.1% Triton X-100, pH 7.4. The final concentration of the enzymes was 10 ng/ml.
After incubating for 30 minutes at room temperature, 4 μl of a mixture of ATP and the protein substrate in 60 mM HEPES (pH7.4), 15 mM MgCl2, 0.3 mM CaCl2, 0.06% NP40 was added.
After incubating for 80 minutes at room temperature, 3 μl of a mix solution of 500 mM EDTA (stop solution) and the Rhodamine-based PKC Red Tracer (from the Protein Kinase C Assay Kit) in BGG/phosphate buffer (pH7.4) with 0.02% NaN3 and 0.1% Triton X-100 was added and 5 μl of a the Anti-Phosphoserine antibody (also from the Protein Kinase C Assay Kit) in BGG/phosphate buffer (pH7.4) with 0.02% NaN3.
The results were fitted to a curve using the XL-Fit algorithm and […] were calculated for each fitted curve, again using the XL-Fit algorithm.

[1] = Table 2, compounds of Formula XIII
[2] = compounds of Formula XIV, Table 3

IC50 [1]	IC50 [2]	Compound
0.05 to 0.5 µM		NC(CNC(=O)Cc1ccccc1)c1ccc(C(=O)Nc2ccncc2)cc1 (stereo not drawn) [Compound 328, 4-(1-Amino-2-phenylacetylamino-ethyl)-N-pyridin-4-yl-benzamide]
0.05 to 0.5 µM		NC(CNC(=O)Cc1ccc(Cl)c(Cl)c1)c1ccc(C(=O)Nc2ccncc2)cc1 (stereo not drawn) [Compound 329, 4-{1-Amino-2-[2-(3,4-dichloro-phenyl)-acetylamino]-ethyl}-N-pyridin-4-yl-benzamide]
0.05 to 0.5 µM		NC(CNC(=O)Cc1ccc(F)c(Cl)c1)c1ccc(C(=O)Nc2ccncc2)cc1 (stereo not drawn) [Compound 330, 4-{1-Amino-2-[2-(3-chloro-4-fluoro-phenyl)-acetylamino]-ethyl}-N-pyridin-4-yl-benzamide]
0.5 to 5 µM		NC(CNC(=O)Cc1cc(F)ccc1F)c1ccc(C(=O)Nc2ccncc2)cc1 (stereo not drawn) [Compound 331, 4-{1-Amino-2-[2-(2,5-difluoro-phenyl)-acetylamino]-ethyl}-N-pyridin-4-yl-benzamide]
0.05 to 0.5 µM		NC(CNC(=O)Cc1ccc(F)cc1Cl)c1ccc(C(=O)Nc2ccncc2)cc1 (stereo not drawn) [Compound 332, 4-{1-Amino-2-[2-(2-chloro-4-fluoro-phenyl)-acetylamino]-ethyl}-N-pyridin-4-yl-benzamide]
0.05 to 0.5 µM		NC(CNC(=O)Cc1ccc(Cl)cc1F)c1ccc(C(=O)Nc2ccncc2)cc1 (stereo not drawn) [Compound 333, 4-{1-Amino-2-[2-(4-chloro-2-fluoro-phenyl)-acetylamino]-ethyl}-N-pyridin-4-yl-benzamide]
< 0.05 µM		CCC(CC)(C(=O)NCC(N)c1ccc(C(=O)Nc2ccncc2)cc1)c1ccccc1 (stereo not drawn) [Compound 334, 4-[1-Amino-2-(2-ethyl-2-phenyl-butyrylamino)-ethyl]-N-pyridin-4-yl-benzamide]
< 0.05 µM		NC(CNC(=O)C1(c2ccc(F)cc2)CCCC1)c1ccc(C(=O)Nc2ccncc2)cc1 (stereo not drawn) [Compound 336, 4-(1-Amino-2-{[1-(4-fluoro-phenyl)-cyclopentanecarbonyl]-amino}-ethyl)-N-pyridin-4-yl-benzamide]
0.05 to 0.5 µM		NC(CNC(=O)C1(c2cccc(F)c2)CCCC1)c1ccc(C(=O)Nc2ccncc2)cc1 (stereo not drawn) [Compound 341, 4-(1-Amino-2-{[1-(3-fluoro-phenyl)-cyclopentanecarbonyl]-amino}-ethyl)-N-pyridin-4-yl-benzamide]
< 0.05 µM		NC(CNC(=O)C1(c2ccc(F)cc2Cl)CCCC1)c1ccc(C(=O)Nc2ccncc2)cc1 (stereo not drawn) [Compound 342, 4-(1-Amino-2-{[1-(2-chloro-4-fluoro-phenyl)-cyclopentanecarbonyl]-amino}-ethyl)-N-pyridin-4-yl-benzamide]
0.05 to 0.5 µM		NC(CNC(=O)C1CCCc2ccccc21)c1ccc(C(=O)Nc2ccncc2)cc1 (stereo not drawn) [Compound 350, 1,2,3,4-Tetrahydro-naphthalene-1-carboxylic acid {2-amino-2-[4-(pyridin-4-ylcarbamoyl)-phenyl]-ethyl}-amide]
0.05 to 0.5 µM		NC(CNC(=O)C1CCc2ccccc21)c1ccc(C(=O)Nc2ccncc2)cc1 (stereo not drawn) [Compound 351, Indan-1-carboxylic acid {2-amino-2-[4-(pyridin-4-ylcarbamoyl)-phenyl]-ethyl}-amide]
< 0.05 µM		NC(CNC(=O)C1CCc2cc(Cl)ccc21)c1ccc(C(=O)Nc2ccncc2)cc1 (stereo not drawn) [Compound 352, 5-Chloro-indan-1-carboxylic acid {2-amino-2-[4-(pyridin-4-ylcarbamoyl)-phenyl]-ethyl}-amide]
0.05 to 0.5 µM		NC(CNC(=O)C1CCc2ccc(F)cc21)c1ccc(C(=O)Nc2ccncc2)cc1 (stereo not drawn) [Compound 354, 6-Fluoro-indan-1-carboxylic acid {2-amino-2-[4-(pyridin-4-ylcarbamoyl)-phenyl]-ethyl}-amide]
	0.05 to 0.5 µM	NC(CC(=O)NC1CCOc2ccccc21)c1ccc(C(=O)Nc2ccncc2)cc1 (stereo not drawn) [Compound 359, 4-[1-Amino-2-(chroman-4-ylcarbamoyl)-ethyl]-N-pyridin-4-yl-benzamide]
	0.05 to 0.5 µM	NC(CC(=O)NC1CCSc2ccccc21)c1ccc(C(=O)Nc2ccncc2)cc1 (stereo not drawn) [Compound 360, 4-[1-Amino-2-(thiochroman-4-ylcarbamoyl)-ethyl]-N-pyridin-4-yl-benzamide]
	0.05 to 0.5 µM	NC(CC(=O)NC1COc2ccccc21)c1ccc(C(=O)Nc2ccncc2)cc1 (stereo not drawn) [Compound 366, 4-[1-Amino-2-(2,3-dihydro-benzofuran-3-ylcarbamoyl)-ethyl]-N-pyridin-4-yl-benzamide]
	0.05 to 0.5 µM	NC(CC(=O)NC1CCCc2sccc21)c1ccc(C(=O)Nc2ccncc2)cc1 (stereo not drawn) [Compound 367, 4-[1-Amino-2-(4,5,6,7-tetrahydro-benzo[b]thiophen-4-ylcarbamoyl)-ethyl]-N-pyridin-4-yl-benzamide]
	0.5 to 5 µM	NC(CC(=O)NC(c1ccc(Cl)cc1)C1CC1)c1ccc(C(=O)Nc2ccncc2)cc1 (stereo not drawn) [Compound 368, 4-(1-Amino-2-{[(4-chloro-phenyl)-cyclopropyl-methyl]-carbamoyl}-ethyl)-N-pyridin-4-yl-benzamide]
	0.05 to 0.5 µM	NC(CC(=O)NC(c1ccc(F)cc1)C1CCC1)c1ccc(C(=O)Nc2ccncc2)cc1 (stereo not drawn) [Compound 369, 4-(1-Amino-2-{[cyclobutyl-(4-fluoro-phenyl)-methyl]-carbamoyl}-ethyl)-N-pyridin-4-yl-benzamide]
< 0.05 µM		CC(C)(C(=O)NCC(N)c1ccc(C(=O)Nc2ccncc2)cc1)c1ccc(F)c(F)c1 (stereo not drawn) [Compound 376, 4-{1-Amino-2-[2-(3,4-difluoro-phenyl)-2-methyl-propionylamino]-ethyl}-N-pyridin-4-yl-benzamide]

Compound	IC50 [1]	IC50 [2]
4-(1-Amino-2-{[1-(4-chloro-phenyl)- cyclobutanecarbonyl]-amino}-ethyl)- N-pyridin-4-yl-benzamide [Compound 337]	0.05 to 0.5 µM	
4-(1-Amino-2-{[1-(4-fluoro-phenyl)- cyclobutanecarbonyl]-amino}-ethyl)- N-pyridin-4-yl-benzamide [Compound 338]	< 0.05 µM	
4-(1-Amino-2-{[1-(4-fluoro-phenyl)- cyclohexanecarbonyl]-amino}-ethyl)- N-pyridin-4-yl-benzamide [Compound 343]	< 0.05 µM	
4-[1-Amino-2-(5-fluoro- indan-1-ylcarbamoyl)-ethyl]- N-pyridin-4-yl-benzamide [Compound 361]		0.05 to 0.5 µM
4-[1-Amino-2-(6-fluoro- indan-1-ylcarbamoyl)-ethyl]- N-pyridin-4-yl-benzamide [Compound 362]		0.05 to 0.5 µM
7-Fluoro-indan-1-carboxylic acid {2- amino-2-[4-(pyridin-4-ylcarbamoyl)- phenyl]-ethyl}-amide [Compound 353]	0.05 to 0.5 µM	
